Experimental data taken from US8946302B2, “Selective sigma-1 receptor ligands” (Wisconsin Alumni Research Foundation, priority 2008, dated 2015).
Values joined by “and” are separate entries in the source; they are usually repeats but may differ in a detail not shown here. Equal entries are not always repeated. Where two headings read alike, the source gives them in different places.

Assays:
[1] = target: T1, sigma-1 receptor (Cavia porcellus, UniProt Q60492); assay: Sigma-1 competitive binding, (+)-[3H]pentazocine, guinea pig liver membranes (Example 6); set-up: from tissue; host or cells: guinea pig liver membranes; conditions: for Kd: guinea pig liver membranes, n = 3, read-out: Sigma 1 KD values;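 for all read-outs here: compounds tested over serial concentrations, 45 min incubation at 30 °C with membrane preparations, read-out is displacement of bound radioligand from the receptor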
T1 sequence (Q60492 whole entry): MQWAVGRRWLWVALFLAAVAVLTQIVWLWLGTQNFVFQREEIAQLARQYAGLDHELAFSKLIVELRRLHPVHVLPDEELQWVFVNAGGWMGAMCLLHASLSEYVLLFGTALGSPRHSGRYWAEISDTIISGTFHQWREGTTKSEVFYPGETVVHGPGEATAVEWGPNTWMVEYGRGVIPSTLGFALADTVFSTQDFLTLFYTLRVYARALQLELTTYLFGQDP
Protocol: (§3) Minced frozen rat livers or guinea pig livers (65 g) were thawed in 100 mL homogenization buffer (10 mM phosphate buffer pH 7.4 containing 0.32M sucrose, 1 M MgSO4, 0.5 M EGTA, 1 mM phenylmethylsulphonyl fluoride (PMSF), 10 μg/mlleupeptin, 1 μg/ml pepstatin A, 10 μg/ml p-toluenesulfonyl-L-arginine methyl ester (TAME) and then homogenized on ice with a Brinkman polytron homogenizer (setting 6, 4 bursts of 10 second each) followed by a glass homogenizer (Teflon pestle by 6 slow passes at 3,000 rpm). The homogenized tissues were then centrifuged at 17,000 g for 10 minutes. The supernatants were re-centrifuged at 100,000 g for 1 hour. The microsomal pellets were resuspended in homogenization buffer, snap frozen with dry ice-ethanol, and stored at −80° C. at a final protein concentration of 20 mg/mL.
(§4) Assays for sigma-1 were performed using 10 nM (+)-[^3H]pentazocine in guinea pig liver homogenates (25 μg/well) incubated at 30° C. for 1 hour with several concentrations of competing ligands. After incubation, membranes were harvested on a 0.5% PEI-treated Whatman GF/B filters using a Brandel Cell Harvester. (+)-[^3H]pentazocine binding was determined by liquid scintillation counting. […] Serial concentrations of the compounds evaluated were added to the reactions for 45 minutes at 30° C. and the samples vacuum filtered through 0.5% polyethyleneimine (PEI) treated Whatman GF/B as described above to measure displacement of the radioligands from the sigma receptor subtypes.

[2] = target: T2, sigma-2 receptor (Rattus norvegicus, UniProt Q5U3Y7); assay: Sigma-2 competitive binding, [3H]-DTG with (+)-pentazocine, rat liver membranes (Example 6); set-up: from tissue; host or cells: rat liver membranes; conditions: rat liver membranes, n = 3; read-out: Sigma2 KD values
T2 sequence (Q5U3Y7 1-176): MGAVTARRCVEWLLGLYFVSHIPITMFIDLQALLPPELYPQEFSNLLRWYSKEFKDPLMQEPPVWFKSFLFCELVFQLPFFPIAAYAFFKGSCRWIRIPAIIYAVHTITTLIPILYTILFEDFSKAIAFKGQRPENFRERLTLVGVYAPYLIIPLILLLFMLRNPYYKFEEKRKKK
Protocol: as §3, §4

[3] = tested on: WT and sigma-1 receptor knockout mice; assay: Open-field hypermobility assay in WT and sigma-1 receptor KO mice; format: in vivo, mouse; conditions: WT and KO mice, 3 mg/kg i.p.
Protocol: All mice were maintained on a normal light/dark cycle and handled in accordance with Animal Care and Use Guidelines of the University of Wisconsin, Madison. […] Mice were first acclimatized to the experimental room for one hour. WT and KO mice were injected with the monoamine oxidase inhibitor, pargyline (75 mg/kg, i.p.) two hours prior to DMT or vehicle injection(28). […] Each condition represents 8 to 14 mice (n=8-14). […] A computer program was used to quantitate movement and after each experiment, 70% ethanol was used to remove odors from the open-field.

[4] = target: T2, sigma-2 receptor; assay: Sigma-2 receptor competitive binding, trace amines; set-up: from tissue; host or cells: liver membranes (rat inferred)
Protocol: (§1) Competitive binding assays were performed as previously described (18) with the exception of testing new ligands shown in Table 4.

[5] = target: T1, sigma-1 receptor; assay: Competition assay against (+)-[3H]-pentazocine, trace amines; format: binding; set-up: from tissue; conditions: for sigma-2/sigma-1 Kd ratio: sigma-2 KD / sigma-1 KD
Protocol: as §1

[6] = target: T3, σ-2 Sites (Rattus norvegicus, UniProt Q5U3Y7); assay: σ-2 sites radioligand binding, rat liver membranes (Table 2)
T3 construct: from tissue
T3 sequence (Q5U3Y7 1-176): T2 sequence (Q5U3Y7 1-176)
Protocol: as §4

[7] = target: T4, σ-1 Sites (Cavia porcellus, UniProt Q60492); assay: σ-1 sites radioligand binding, guinea pig liver membranes (Table 2); conditions: for Ki: guinea pig liver membranes
T4 construct: from tissue
T4 sequence (Q60492 whole entry): as the sequence (Q60492 whole entry) above
Protocol: as §4

[8] = target: T5, Kv 1.4 K+ channel (Rattus norvegicus, UniProt P15385); assay: Whole cell patch clamp of Kv 1.4 K+ channel co-expressed with sigma-1 receptor in HEK-293 cells; format: cell-based; conditions: for EC50: HEK-293 co-expressing sigma-1 receptor, read-out: EC50 for inhibition of the Kv 1.4 K+ channel; for average inhibition of Kv 1.4 K+ channel: concentrations up to 300 μM, HEK-293
T5 construct: expressed in transfected cells; host or cells: HEK-293, transient, pIRES KvS1R plus pEGFP
T5 sequence (Q9R0C9 whole entry partner): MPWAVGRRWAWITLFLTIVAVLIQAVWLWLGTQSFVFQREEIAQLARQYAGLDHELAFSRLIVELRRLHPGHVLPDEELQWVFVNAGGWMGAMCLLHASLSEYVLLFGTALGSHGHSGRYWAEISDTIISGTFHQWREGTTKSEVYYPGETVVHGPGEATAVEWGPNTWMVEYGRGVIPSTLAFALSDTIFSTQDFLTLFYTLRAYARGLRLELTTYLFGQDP
T5 sequence (P15385 whole entry): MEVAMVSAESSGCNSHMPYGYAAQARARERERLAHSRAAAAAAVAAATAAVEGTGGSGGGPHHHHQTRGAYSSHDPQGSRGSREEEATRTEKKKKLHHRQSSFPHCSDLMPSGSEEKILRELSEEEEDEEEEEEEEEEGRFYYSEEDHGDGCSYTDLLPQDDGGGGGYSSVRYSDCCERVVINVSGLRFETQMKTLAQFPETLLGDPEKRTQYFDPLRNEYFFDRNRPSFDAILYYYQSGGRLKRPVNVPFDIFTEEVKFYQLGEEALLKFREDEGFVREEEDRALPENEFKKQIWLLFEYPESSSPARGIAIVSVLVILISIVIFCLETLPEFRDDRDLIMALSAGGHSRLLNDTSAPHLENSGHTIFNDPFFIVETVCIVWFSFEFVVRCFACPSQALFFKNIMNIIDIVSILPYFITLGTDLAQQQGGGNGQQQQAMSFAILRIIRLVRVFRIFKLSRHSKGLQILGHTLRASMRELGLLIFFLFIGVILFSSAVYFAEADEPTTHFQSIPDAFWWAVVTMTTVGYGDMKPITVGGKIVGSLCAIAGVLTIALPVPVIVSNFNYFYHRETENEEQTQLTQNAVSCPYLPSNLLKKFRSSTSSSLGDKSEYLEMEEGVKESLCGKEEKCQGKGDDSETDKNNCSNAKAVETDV
Protocol: After transfection (36-48 hours), whole cell K^+ currents were recorded from GFP positive HEK cells under voltage clamp using standard patch clamp techniques, using patch pipettes filled with (in mM) 120 KCl, 10 NaCl, 10 EGTA, 2 MgCl2, 2-4 MgATP, 0.3 NaGTP, 10 HEPES, pH 7.3.
The external solution was composed of (in mM) 130 NaCl, 4 KCl, 2 CaCl2, 1 MgCl2, 10 HEPES, pH 7.4 at room temperature (22-24° C.). Patch pipettes with resistances from 1-3 MΩ were fabricated from borosilicate glass (Garner Glass Co., CA). K^+ channels were activated by voltage step from −120 mV to 20 mV for 250 ms. Axopatch 200B, patch clamp amplifier interfaced to a PC running PCLAMP 7 (Axon Instruments) was used for data acquisition. Drugs were applied by a gravity feed system at a flow rate of 1-3 mL/minute. Series resistance compensation was used for cells with series resistance values higher than 10 MΩ. A 80-90% series resistance compensation was achieved on such cells.
K^+ currents were recorded using whole cell patch clamp technique.

[9] = target: T6, purified sigma-1 receptor (Cavia porcellus, UniProt Q60492); assay: Competitive displacement of [3H]-(+)-pentazocine at the pure sigma-1 receptor; format: binding, guinea pig; conditions: read-out: Ki Pure σ-1R
T6 construct: made in house; host or cells: E. coli BL21 DE3
T6 sequence (Q60492 whole entry): as the sequence (Q60492 whole entry) above
Protocol: A guinea pig sigma-1 receptor was purified as previously described (Ramachandran et al., Protein Expr. Purif., 2007. 51(2): 283-92). The pMal P2X plasmid (New England Biolabs) encoding the guinea pig sigma-1 receptor on the C-terminus of the E. coli Maltose Binding Protein was used for purification. The sigma-1 receptor on its C-terminus carried a hexa-histadine epitope tag. Protein was expressed in the E. coli strain BL21 DE3 (Novagen) with 0.6 mM IPTG. The E. coli pellet was sonicated and centrifuged at 100,000 g for 1 hour to separate the particulate and soluble fractions. The particulate fraction was extracted with Triton X-100, centrifuged and the extract was loaded onto an amylose resin (New England Biolabs, E-802). After washing the resin with buffer containing 0.5% Triton X-100, the MBP-sigma-1 receptor fusion protein was eluted with buffer containing 10 mM maltose.
The MBP-sigma-1-receptor fusion protein was cleaved with Factor Xa protease (Novagen) at room temperature for 24-48 hours and the cleavage was monitored with SDS-polyacrylamide gel electrophoresis. The sigma-1 receptor from the Factor Xa cleavage was purified with a HIS-Select HC Nickel affinity gel (Sigma-Aldrich P6611) in a batch format. The resin was washed with buffer containing 0.5% Triton X-100 detergent and the beads were separated by a brief centrifugation at 4000 rpm in a microcentrifuge. After washing to remove MBP, the pure sigma-1 receptor was eluted in buffer containing 250 mM imidazole.
To remove the undigested MBP-sigma-1 receptor fusion protein that is carried over in the Ni^2+ purification, the eluate from the Ni^2+ purification was incubated with Anti-MBP antibody conjugated to agarose (Vector Laboratories, Burlingame, Calif.) at 4° C. for 18-24 hours. The beads were separated by centrifugation and the supernatant contained the pure sigma-1 receptor.
Competition ligand binding to the pure sigma-1 receptor was performed as previously described. […] After incubation at 30° C. for 60 minutes, the reaction was terminated by rapid filtration through glass fiber filters (Whatman GF/B), using a Brandel cell harvester (Brandel, Gaithersburg, Md.). The glass fiber filters were pre-soaked in 0.5% polyethyleneimine (PEI) for at least 1 hour at room temperature (˜23° C.). Filters were washed 4 times with 4 mL of ice-cold 50 mM Tris-C1, pH 8.0. Radioactivity was quantified by liquid scintillation counting using a Packard model 1600 CA scintillation counter.

[10] = target: T7, sigma-1 receptor (Rattus norvegicus, UniProt Q9R0C9); assay: Protection of [125I]-IACoc photolabeling in rat liver membranes; format: binding; conditions: even at 50 and 100 μM
T7 construct: from tissue; host or cells: rat liver membranes
T7 sequence (Q9R0C9 whole entry): as the sequence (Q9R0C9 whole entry partner) above
Protocol: (§5) Rat liver membranes (100 μg/lane) were suspended in the presence or absence of the protecting drugs. […] Percent band intensities are shown compared to controls performed in the absence of protecting ligand (−).

[11] = target: T2, sigma-2 receptor; assay: Protection of [125I]IAF photolabeling of the sigma-2 receptor in rat liver membranes; format: binding; set-up: from tissue; host or cells: rat liver membranes
Protocol: as §5

[12] = tested on: NCI-H460; assay: Cytotoxicity assay NCI-H460; format: cell-based; conditions: Homo sapiens, HU lung, read-out: IC50 (SE) growth inhibition
Protocol: (§2) Multi-plex cytotoxicity assays were performed by the Keck-UWCCC Small Molecule Screening Facility (Madison, Wis.). Specific methodology can be found online at http://hts.wisc.edu/Resources.htm#mpa.

[13] = tested on: HCT-45; assay: Cytotoxicity assay HCT-45; format: cell-based; conditions: Homo sapiens, HU Colorectal, read-out: IC50 (SE) growth inhibition
Protocol: as §2

[14] = tested on: MCF7; assay: Cytotoxicity assay MCF7; format: cell-based; conditions: Homo sapiens, HU Breast, read-out: IC50 (SE) growth inhibition
Protocol: as §2

[15] = tested on: tumor cell lines; assay: Cytotoxicity assays, various tumor cell lines (statements in words); format: cell-based, human
Protocol: Because sigma-1 receptors are overexpressed in numerous tumor cell lines, which include breast cancer, lung carcinoma, renal carcinoma, colon carcinoma, sarcoma, brain tumors, melanoma, glioblastoma, neuroblastoma, and prostate cancer, the ability of the compounds to inhibit the growth of various tumor cell lines were tested.
as §2

[16] = tested on: HT-29; assay: Cytotoxicity assay HT-29; format: cell-based; conditions: Homo sapiens, HU Colorectal, read-out: IC50 (SE) growth inhibition
Protocol: as §2

[17] = tested on: MB-MDA-231; assay: Cytotoxicity assay MB-MDA-231; format: cell-based; conditions: Homo sapiens, HU Breast, read-out: IC50 (SE) growth inhibition
Protocol: as §2

[18] = tested on: SKOV-3; assay: Cytotoxicity assay SKOV-3; format: cell-based; conditions: Homo sapiens, SK-OV-3, HU Ovarian, read-out: IC50 (SE) growth inhibition
Protocol: as §2

[19] = tested on: A549; assay: Cytotoxicity assay A549; format: cell-based; conditions: Homo sapiens, HU lung, read-out: IC50 (SE) growth inhibition
Protocol: as §2

[20] = tested on: SF268; assay: Cytotoxicity assay SF268; format: cell-based; conditions: Homo sapiens, SF-268, HU CNS, read-out: IC50 (SE) growth inhibition
Protocol: as §2

[21] = tested on: MCP10A; assay: Cytotoxicity assay MCP10A; format: cell-based; conditions: Homo sapiens, HU Breast, read-out: IC50 (SE) growth inhibition
Protocol: as §2

[22] = tested on: Du145; assay: Cytotoxicity assay Du145; format: cell-based; conditions: Homo sapiens, DU-145, HU Prostate, read-out: IC50 (SE) growth inhibition
Protocol: as §2

[23] = tested on: HI299; assay: Cytotoxicity assay HI299; format: cell-based; conditions: Homo sapiens, HU Lung, read-out: IC50 (SE) growth inhibition
Protocol: as §2

Structure (SMILES): CCCCN(CCCC)C(=O)CCc1ccc(F)cc1 [Compound 5, N,N-Dibutyl-3-(4-fluorophenyl)propionamide]
- Ratio (σ2/σ1) [1]: 3.94
- Kd [1]: 32100 nM
- Kd [2]: 126000 nM
- melting point: 162 to 164 °C

Structure (SMILES): CN[C@@H](C)Cc1ccccc1 [methamphetamine]
- hypermobility [3]: induced hypermobility in both WT and KO mice

Structure (SMILES): NCCc1ccccc1 [Phenethylamine]
- Kd [4]: 7.31 µM
- Kd [5]: 97.4 µM

Structure (SMILES): CNCCc1ccc(O)cc1 [N-methyltyramine, 4-(2-(methylamino)ethyl)phenol]
- Kd ([4]; read-out: Sigma-2R KD): 6.61 µM

Structure (SMILES): CNCCc1ccccc1 [N-methylPEA]
- sigma-2/sigma-1 Kd ratio [5]: 0.366

Structure (SMILES): CCCCNCCCc1ccccc1 [Compound 1a, N-(3-Phenylpropyl)butan-1-amine]
- Ki [6]: 153 nM
- Ki [7]: 73 nM
- σ-1 selectivity σ-2 Ki/σ-1 Ki ([7]; σ-2 rat liver / σ-1 guinea pig liver membranes): 2
- EC50 [8]: 50 µM
- Ki ([9]; [3H]-(+)-pentazocine): 0.205 ± 0.0185 µM

Structure (SMILES): NCCc1c[nH]c2ccccc12 [Tryptamine]
- protection of sigma-1 receptor [125I]-IACoc photolabeling [10]: protected minimally
- Kd ([4]; read-out: Sigma-2R KD): 4.91 µM
- Kd [5]: 432 µM
- protection of [125I]IAF sigma-2 receptor photolabeling ([11]; 10 μM): 47%
- protection of [125I]IAF sigma-2 receptor photolabeling ([11]; 50 μM): 78%
- protection of [125I]IAF sigma-2 receptor photolabeling ([11]; 100 μM): 79%

Structure (SMILES): CCCN(CCCc1ccc(F)cc1)Cc1ccc(N)cc1 [Compound 17, N-Propyl-N-(4-amino-benzyl)-3-(4-fluorophenyl)propylamine]
- IC50 [12]: > 100 µM
- Ratio (σ2/σ1) [1]: 13.11 ^
- Kd [1]: 164 nM
- IC50 [13]: > 100 µM
- IC50 [14]: > 100 µM
- cytotoxicity / tumor cell growth inhibition [15]: lacked any cytotoxic properties
- IC50 [16]: > 100 µM
- IC50 [17]: > 100 µM
- Kd [2]: 2150 nM
- IC50 [18]: > 100 µM
- IC50 [19]: > 100 µM
- IC50 [20]: > 100 µM
- IC50 [21]: > 100 µM
- IC50 [22]: > 100 µM
- IC50 [23]: > 100 µM

Structure (SMILES): NCCc1ccc(O)cc1 [Tyramine]
- Kd ([5]; (+)-[3H]-pentazocine 10 nM, read-out: Sigma-1R KD): > 30000 µM

Structure (SMILES): CCCCN [Butylamine, reference compound]
- average inhibition of Kv 1.4 K+ channel [8]: 21%
- Ki ([9]; [3H]-(+)-pentazocine 10 nM): 477 ± 67.5 µM

Structure (SMILES): CCCCN(CCCC)CCCc1ccc(F)cc1 [Compound 10, N,N-Dibutyl-3-(4-fluorophenyl)propylamine]
- IC50 [12]: > 100 µM
- Ratio (σ2/σ1) [1]: 38.7
- Kd [1]: 17.7 nM
- IC50 [13]: > 100 µM
- IC50 [14]: > 100 µM
- IC50 [16]: > 100 µM
- IC50 [17]: > 100 µM
- Kd [2]: 685 nM
- IC50 [18]: 56.2 µM
- IC50 [19]: > 100 µM
- IC50 [20]: > 100 µM
- IC50 [21]: > 100 µM
- IC50 [22]: > 100 µM
- IC50 [23]: > 100 µM

Structure (SMILES): CCCCN(CCCC)CCCc1ccc([N+](=O)[O-])cc1 [Compound 11, N,N-Dibutyl-3-(4-nitrohenyl)propylamine]
- IC50 [12]: 40.5 µM
- Ratio (σ2/σ1) [1]: 1347
- Kd [1]: 0.3 nM
- IC50 [13]: > 100 µM
- IC50 [14]: 22.4 µM
- cytotoxicity / tumor cell growth inhibition [15]: robustly inhibits growth in MB-MDA231, MCF7, Du145, and NCI-H460 cell lines in addition to SKOV-3 cells
- IC50 [16]: > 100 µM
- IC50 [17]: 57.1 µM
- Kd [2]: 404 nM
- IC50 [18]: 27.9 µM
- IC50 [19]: > 100 µM
- IC50 [20]: > 100 µM
- IC50 [21]: > 100 µM
- IC50 [22]: 32.7 µM
- IC50 [23]: > 100 µM

Structure (SMILES): CCCCCCCNCCCc1ccccc1 [Compound 1c, N-(3-Phenylpropyl)heptane-1-amine]
- Ki [6]: 33 nM
- Ki [7]: 15 nM
- EC50 [8]: 10 µM
- Ki ([9]; [3H]-(+)-pentazocine): 0.0184 µM

Structure (SMILES): CNCCc1c[nH]c2ccccc12 [N-methyltryptamine]
- protection of sigma-1 receptor [125I]-IACoc photolabeling [10]: protected minimally

Structure (SMILES): CN(C)CCc1ccccc1 [N,N′-dimethylPEA, N,N-dimethyl-2-phenylethylamine]
- sigma-2/sigma-1 Kd ratio [5]: 1.642

Structure (SMILES): CCCCCCCCN(CCCCCCCC)C(=O)CCc1ccc(F)cc1 [Compound 4, N,N-Dioctyl-3-(4-fluorophenyl)propionamide]
- melting point: 190 to 193 °C

Structure (SMILES): CCCNCCc1ccc([N+](=O)[O-])cc1 [Compound 7, N-propyl-N-3-(4-nitophenyl)-ethylamine]
- Ratio (σ2/σ1) [1]: 23.8
- Kd [2]: 53600 nM
- melting point: 142 to 144 °C

Structure (SMILES): CCCCCCCN [Heptylamine]
- average inhibition of Kv 1.4 K+ channel [8]: 15%
- Ki ([9]; [3H]-(+)-pentazocine 10 nM): 21.4 µM and 21 µM
